Converted amounts (≈) assume the structure as drawn.
Tests used:
physchem = conditions: water
Text: Une deuxième solution consiste à diminuer la solubilité du produit.

XANTHOMONAS CYNARAE = experiment: Minimal inhibitory concentration (CMI) at varying pH; assay type: cell-based
Text: (§1) Une autre conséquence inattendue de la valeur du pH est l'influence sur l'activité antibactérienne elle-même. Selon l'invention, c'est en milieu pH acide que l'on obtient la meilleure activité antibactérienne.
(§2) A titre d'exemple, on donne ci-après les concentrations minimales inhibitrices (CMI) obtenues vis-à-vis de quelques bactéries phytopathogènes en faisant varier le pH.

XANTHOMONAS PRUNI = experiment: as above; assay type: cell-based
Text: as §1, §2

PSEUDOMONAS SYRINGAE = experiment: as above; assay type: cell-based
Text: as §1, §2

PSEUDOMONAS VIRIDIFLAVA = experiment: as above; assay type: cell-based
Text: as §1, §2

ERWINIA AMYLOVORA = experiment: as above; assay type: cell-based
Text: as §1, §2

With `CC1CCc2cc(F)cc3c(=O)c(C(=O)O)cn1c23` (centres unmarked) [Fluméquine, acide [1H-5H] dihydro-6,7 fluoro-9 méthyl-5 oxo-1 benzo [i,j] quinolizine carboxylique-2] the solubility (physchem; pH 5, water) was about 100 µg/mL (≈ 383 µM), the solubility (physchem; pH 7, water) was 300 to 400 µg/mL (≈ 1150 to 1530 µM) and the “concentrations minimales inhibitrices (CMI)” value (XANTHOMONAS CYNARAE; pH 5) was 0,5. The “concentrations minimales inhibitrices (CMI)” value (XANTHOMONAS CYNARAE; pH 6,5) was 1, the “concentrations minimales inhibitrices (CMI)” value (XANTHOMONAS CYNARAE; pH 7,4) was 2 and the “concentrations minimales inhibitrices (CMI)” value (XANTHOMONAS PRUNI; pH 5) was 0,25. The “concentrations minimales inhibitrices (CMI)” value (XANTHOMONAS PRUNI; pH 6,5) was 1, the “concentrations minimales inhibitrices (CMI)” value (XANTHOMONAS PRUNI; pH 7,4) was 2 and the “concentrations minimales inhibitrices (CMI)” value (PSEUDOMONAS SYRINGAE; pH 5) was 0,5. The “concentrations minimales inhibitrices (CMI)” value (PSEUDOMONAS SYRINGAE; pH 6,5) was 2, the “concentrations minimales inhibitrices (CMI)” value (PSEUDOMONAS SYRINGAE; pH 7,4) was 4 and the “concentrations minimales inhibitrices (CMI)” value (PSEUDOMONAS VIRIDIFLAVA; pH 5) was 1. The “concentrations minimales inhibitrices (CMI)” value (PSEUDOMONAS VIRIDIFLAVA; pH 6,5) was 2, the “concentrations minimales inhibitrices (CMI)” value (PSEUDOMONAS VIRIDIFLAVA; pH 7,4) was 4 and the “concentrations minimales inhibitrices (CMI)” value (ERWINIA AMYLOVORA; pH 5) was 0,1. The “concentrations minimales inhibitrices (CMI)” value (ERWINIA AMYLOVORA; pH 6,5) was 0,5 and the “concentrations minimales inhibitrices (CMI)” value (ERWINIA AMYLOVORA; pH 7,4) was 1.
